Read-outs that look alike come from different tables or passages of the source. Bounds are passed on as bounds.

This is an account of results in US20230382919A1, “OXA- IBOGAINE INSPIRED ANALOGUES FOR TREATMENT OF NEUROLOGICAL AND PSYCHIATRIC DISORDERS” (The Trustees of Columbia University in the City of New York, priority 2021, published 2023).

One data set addresses KOR (Rattus norvegicus (Rat), UniProt P34975). In words: KOR agonist (cAMP) assay, CHO cells (commercial). Format: cell-based. The source says:
(§1) Potency (IC50 and EC50) and efficacy values for hERG, rKOR-CHO, hMOR-CHO, h5-HT2A-HEK, h5-HT2B-CHO, h5-HT2C HEK were obtained by screening the selected compounds via commercially available assay services.

The next data set deals with 5-HT2A (Homo sapiens (Human), UniProt P28223). In words: 5-HT2A agonist (IP1) assay, HEK-293 cells (commercial). The following applies: for Emax at 10 µM: HEK293, read-out: % of control agonist maximal response (5-HT2A); for EC50: IP1 agonist assay. Format: cell-based.
Excerpt: as §1

For the next data set, the target named is hERG (Homo sapiens (Human), UniProt Q12809). In words: hERG radioligand ([3H]Dofetilide) displacement binding assay (commercial). The following applies: for IC50: [3H]Dofetilide displacement.
Sequence of hERG (Q12809 whole entry): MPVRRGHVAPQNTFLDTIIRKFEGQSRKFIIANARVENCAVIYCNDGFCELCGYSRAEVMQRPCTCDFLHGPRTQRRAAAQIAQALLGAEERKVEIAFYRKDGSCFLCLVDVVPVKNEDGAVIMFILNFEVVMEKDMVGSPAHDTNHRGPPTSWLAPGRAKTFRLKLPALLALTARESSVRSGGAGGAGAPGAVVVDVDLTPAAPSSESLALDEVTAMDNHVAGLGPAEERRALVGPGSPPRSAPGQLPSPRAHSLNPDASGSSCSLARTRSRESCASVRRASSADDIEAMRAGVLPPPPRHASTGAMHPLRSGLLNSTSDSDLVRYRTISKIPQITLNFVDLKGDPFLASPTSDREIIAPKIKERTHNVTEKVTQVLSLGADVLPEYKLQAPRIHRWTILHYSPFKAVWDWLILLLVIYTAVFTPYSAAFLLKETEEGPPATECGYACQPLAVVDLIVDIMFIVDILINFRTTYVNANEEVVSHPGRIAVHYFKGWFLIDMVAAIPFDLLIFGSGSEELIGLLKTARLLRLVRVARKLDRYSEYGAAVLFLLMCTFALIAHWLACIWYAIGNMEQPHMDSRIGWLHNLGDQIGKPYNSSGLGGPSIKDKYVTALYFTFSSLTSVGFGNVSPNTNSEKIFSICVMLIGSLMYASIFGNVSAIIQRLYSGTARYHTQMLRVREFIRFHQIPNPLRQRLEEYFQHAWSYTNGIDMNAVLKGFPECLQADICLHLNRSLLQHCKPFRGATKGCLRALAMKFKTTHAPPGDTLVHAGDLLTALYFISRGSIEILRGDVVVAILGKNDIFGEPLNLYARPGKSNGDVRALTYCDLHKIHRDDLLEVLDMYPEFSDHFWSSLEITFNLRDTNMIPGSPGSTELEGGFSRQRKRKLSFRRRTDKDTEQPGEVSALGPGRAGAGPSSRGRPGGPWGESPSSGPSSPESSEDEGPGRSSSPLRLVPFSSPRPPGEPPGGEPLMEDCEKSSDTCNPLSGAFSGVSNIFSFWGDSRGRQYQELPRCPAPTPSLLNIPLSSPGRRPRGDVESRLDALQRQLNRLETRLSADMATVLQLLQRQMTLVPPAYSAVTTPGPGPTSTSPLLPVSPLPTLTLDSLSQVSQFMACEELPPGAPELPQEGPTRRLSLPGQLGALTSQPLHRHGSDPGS
Excerpt: as §1

For another data set, the target named is 5-HT2C (Homo sapiens (Human), UniProt P28335). The data set can be described thus: 5-HT2C agonist (IP1) assay, HEK-293 cells (commercial). Format: cell-based. The following applies: for Emax at 10 µM: HEK293, read-out: % of control agonist maximal response (5-HT2C); for EC50: IP1 agonist assay.
Sequence of 5-HT2C (P28335 whole entry, looked up): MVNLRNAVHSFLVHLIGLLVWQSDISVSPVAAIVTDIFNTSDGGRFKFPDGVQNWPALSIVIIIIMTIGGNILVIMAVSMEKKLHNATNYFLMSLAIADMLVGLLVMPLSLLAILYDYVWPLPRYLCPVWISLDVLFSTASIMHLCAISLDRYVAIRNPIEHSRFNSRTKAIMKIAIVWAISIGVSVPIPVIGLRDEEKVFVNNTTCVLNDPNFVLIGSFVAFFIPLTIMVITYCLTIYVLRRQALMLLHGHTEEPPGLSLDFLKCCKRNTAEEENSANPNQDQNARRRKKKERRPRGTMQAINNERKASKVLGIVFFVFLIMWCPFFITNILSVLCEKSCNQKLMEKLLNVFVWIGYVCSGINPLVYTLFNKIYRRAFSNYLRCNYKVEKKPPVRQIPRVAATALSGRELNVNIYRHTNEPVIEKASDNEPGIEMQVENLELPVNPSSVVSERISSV
Excerpt: as §1

A further data set deals with 5-HT2B (Homo sapiens (Human), UniProt P41595). In words: 5-HT2B agonist (IP1) assay, CHO cells (commercial). It is filed as cell-based. Conditions: for Emax at 10 µM: CHO, read-out: % of control agonist maximal response (5-HT2B); for EC50: IP1 agonist assay.
Sequence of 5-HT2B (P41595 whole entry): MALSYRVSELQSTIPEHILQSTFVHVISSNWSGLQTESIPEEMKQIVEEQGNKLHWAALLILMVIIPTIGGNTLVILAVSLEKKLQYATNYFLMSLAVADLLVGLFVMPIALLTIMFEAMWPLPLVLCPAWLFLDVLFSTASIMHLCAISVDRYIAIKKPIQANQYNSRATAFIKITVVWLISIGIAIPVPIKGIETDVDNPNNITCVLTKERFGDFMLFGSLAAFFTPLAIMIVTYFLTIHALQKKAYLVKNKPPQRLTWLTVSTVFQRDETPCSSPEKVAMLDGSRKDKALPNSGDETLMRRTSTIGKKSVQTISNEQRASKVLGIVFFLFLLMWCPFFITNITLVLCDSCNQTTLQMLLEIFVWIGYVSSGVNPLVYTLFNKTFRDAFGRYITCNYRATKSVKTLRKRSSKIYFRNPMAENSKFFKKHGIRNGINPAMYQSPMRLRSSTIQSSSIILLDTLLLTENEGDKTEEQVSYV
Excerpt: as §1

For a further data set, the target named is mouse DOR (mDOR) (Mus musculus (Mouse), UniProt P32300). In words: G-protein BRET functional opioid assay, DOR. The following applies: for Emax: normalized to DPDPE, read-out: % of control agonist maximal response (DOR). Format: cell-based. How it is done: (§2) HEK-293T cells were obtained from the American Type Culture Collection (Rockville, MD) and were cultured in a 5% CO2 atmosphere at 37° C. in Dulbecco's Modified Eagle Medium (high glucose #11965; Life Technologies Corp.; Grand Island, NY) supplemented with 10% FBS (Premium Select, Atlanta Biologicals; Atlanta, GA), 100 U/mL penicillin, and 100 μg/mL streptomycin (#15140, Life Technologies). DNA Constructs: The mouse MOR (mMOR), the mouse DOR (mDOR) and the rat KOR (rKOR) were provided by Dr Lakshmi Devi at Mount Sinai School of Medicine. The G proteins used included untagged GαoB with Renilla luciferase 8 (RLuc8) inserted at position 91 (GαoB-RLuc8); Gβ1 (β1); Gγ2 which was fused to the full-length mVenus at its N-terminus via the amino acid linker GSAGT (mVenus-γ2). All constructs were sequence confirmed prior to use in experiments.
(§3) Transfection: The following cDNA amounts were transfected into HEK-293T cells (5×10^6 cells/plate) in 10-cm dishes using polyethylenimine (PEI) in a 1:1 ratio (diluted in Opti-MEM, Life Technologies): 2.5 μg MOR/DOR/KOR, 0.125 μg GαoBRLuc8, 6.25 μg (1, 6.25 μg mVenus-γ2. Cells were maintained in the HEK-293T media described above. After 24 hours the media was changed, and the experiment was performed 24 hours later (48 hours after transfection). BRET: Transfected cells were dissociated and re-suspended in phosphate-buffered saline (PBS). Approximately 200,000 cells/well were added to a black-framed, white-well, 96-well plate (#60050; Perkin Elmer; Waltham, MA). The microplate was centrifuged and the cells were resuspended in PBS. After 5 minutes, 5 μM of the luciferase substrate coelenterazine H was added to each well. After 5 minutes, ligands were added and the BRET signal was measured 5 minutes later on a PHERAstar FS plate reader. The BRET signal was quantified by calculating the ratio of the light emitted by the energy acceptor, mVenus (510-540 nm), over the light emitted by the energy donor, RLuc8 (485 nm). This drug-induced BRET signal was normalized using the Emax of a known agonist (DAMGO, DPDPE or U-50,488) as the maximal response at MOR/DOR/KOR. Data were analyzed using the dose-response-stimulation nonlinear curve fitting model (log[agonist] vs. response (three parameters)).

For another data set, the target named is mouse MOR (mMOR) (Mus musculus (Mouse), UniProt P42866). The data set can be described thus: G-protein BRET functional opioid assay, MOR. Format: cell-based. The following applies: for Emax: normalized to DAMGO, read-out: % of control agonist maximal response (MOR). Here is the method: as §2, §3
Sequence of mouse MOR (mMOR) (P42866 whole entry, looked up): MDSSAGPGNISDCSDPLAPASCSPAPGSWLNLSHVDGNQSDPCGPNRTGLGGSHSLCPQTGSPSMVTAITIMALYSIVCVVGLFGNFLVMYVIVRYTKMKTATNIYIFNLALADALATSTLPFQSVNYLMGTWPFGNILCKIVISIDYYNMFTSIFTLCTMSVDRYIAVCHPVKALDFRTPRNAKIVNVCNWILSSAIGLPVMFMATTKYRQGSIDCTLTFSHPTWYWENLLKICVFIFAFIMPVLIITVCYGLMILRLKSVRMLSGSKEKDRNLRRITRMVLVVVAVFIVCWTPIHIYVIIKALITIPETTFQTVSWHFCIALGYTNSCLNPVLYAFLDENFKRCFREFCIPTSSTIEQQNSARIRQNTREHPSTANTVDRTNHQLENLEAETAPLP
For another data set, the target named is rat KOR (rKOR) (Rattus norvegicus (Rat), UniProt P34975). In words: G-protein BRET functional opioid assay, KOR. It is filed as cell-based. Conditions: for Emax: normalized to U-50,488, read-out: % of control agonist maximal response (KOR). How it is done:
as §2, §3

The target in another data set is hSERT (Homo sapiens (Human), UniProt P31645). In words: hSERT fluorometric screening assay (APP+ uptake, hSERT-HEK cells). It is filed as cell-based. Conditions: average ± SEM, n ≥ 4; read-out: IC50 SERT [μM ± SEM]. Here is the method: (§4) Inhibition assays of transporters (hSERT and rVMAT2) were performed according to the following protocol.
(§5) Stably transfected hSERT-HEK and rVMAT2-HEK cellular cultures were maintained in Dulbecco's Minimal Essential Medium (DMEM) with GlutaMAX (Gibco) with the following additions: 10% (v/v) Fetal Bovine Serum (FBS, Atlanta Biologicals), 100 U/mL Penicillin (Gibco), and 10 μg/mL Streptomycin (Gibco). With regards to the former cell lineage, an additional ingredient, 500 μg/mL Geneticin (G418) (Gibco) was included to preserve the respective transgene.
(§6) For both hSERT and rVMAT2 screening experiments, respective singly transfected cells were seeded at a density of 0.09×10^6 cells/well in poly-D-Lysine (Alamanda Polymers, Inc.) coated white solid-bottom 96-well plates (Costar). Growth was permitted for approximately 44 hours in said aqueous media and at an incubation environment of 37° C. and 5% Carbon Dioxide. At the beginning of the experiment, the cellular growth solution was aspirated, and individual cells were rinsed with 150 μL of 1×Dulbecco's Phosphate Buffered Saline (PBS; HyClone). 63 μL of Experimental Media (consisting of the following contents: DMEM without phenol red but with 4.5 g/L of D-Glucose (Gibco), 1% (v/v) FBS (Atlanta Biologicals), 100 U/mL Penicillin (Gibco), and 10 μg/mL Streptomycin (Gibco)) with 2×tiered concentrations of inhibitor (or DMSO, the vehicle of these experiments) were added to the respective wells. Control inhibitors used in these studies include Imipramine for hSERT experiments, and Reserpine for rVMAT2 experiments (Eiden, L. E. and Weihe, E. 2011; Sette, M. et al. 1983). At the conclusion of the pre-incubation period (60 minutes for hSERT experiments and 30 minutes for rVMAT2 experiments), 63 μL of Experimental Media containing 2×various concentrations of tested inhibitor (or vehicle) along with a specified amount of fluorescent substrate, APP^+ (Karpowicz, R. J. et al 2013) (final concentration: 1.1 μM for hSERT experiments) or FFN206 (Hu, G. et al. 2013) (final concentration: 0.75 μM for rVMAT2 experiments) were added to the present solution contained within the wells. […] A final solution of 120 μL of PBS is finally added to all corresponding wells for cell maintenance before undergoing fluorescence uptake reading by a BioTek H1MF plate reader. […]
(§7) Numerical analysis of the collected experimental data preceded as accordingly. Respective inhibitor values were first subtracted from vehicular values to quantify the respective fluorescence uptake. This metric was then analyzed using the dose-response-inhibitor nonlinear curve fitting model ([inhibitor] vs response (three parameters)) as supplied by GraphPad Prism 8 software. […]

For a further data set, the target named is rVMAT2 (Rattus norvegicus (Rat), UniProt Q01827). The data set can be described thus: rVMAT2 fluorometric screening assay (FFN206 uptake, rVMAT2-HEK cells). Format: cell-based. Conditions: average ± SEM, n ≥ 4; read-out: IC50 VMAT2 [μM ± SEM]. Here is the method:
as §4, §5, §6, §7

In another data set the test system is C57BL/6J mice. The data set can be described thus: Tail-flick test. It is filed as in vivo. The following applies: Mus musculus, sc, 10-30 mg/kg dose range. How it is done:
C57BL/6J (8-12 weeks, 22-31 g) were purchased from the Jackson Laboratory (Bar Harbor, ME) and housed 5 mice per cage with food and water available ad libitum. Mice were maintained on a 12-hr light/dark cycle (lights on 7:00-19:00) and all testing was done in the light cycle. Temperature was kept constant at 22±2° C., and relative humidity was maintained at 50±5%. Mice were moved to the testing room 30 minutes before the experiment to allow for acclimation. The body weight of each mouse and base tail-flick value were recorded. Mice were administered a 1 mg/kg s.c. dose of compound solution (volume of injection 220-310 μL based on body weight). After injection mice were returned to the home cage and allowed to rest for 30 minutes. Thirty minutes post injection the tail-flick measurement was taken using thermal stimulation via IR on a Ugo Basile unit set to 52 PSU (ten seconds was used as a maximum latency to prevent tissue damage). Mice were then administered 3 mg/kg s.c. dose, allowed to rest for 30 minutes, followed by another tail-flick measurement. […] Tail-flick latencies for the different doses were expressed as percentage of maximum potential effect (% MPE) by subtracting the experimental value by the base tail flick value then dividing by the difference between the maximum possible latency (10 seconds) and the base tail-flick value and finally multiplying by 100. […]

[1] abbreviates: CHO, Table 5, CAMP Assay, read-out: % of control agonist maximal response (KOR).

Sequence of rVMAT2 (Q01827 whole entry): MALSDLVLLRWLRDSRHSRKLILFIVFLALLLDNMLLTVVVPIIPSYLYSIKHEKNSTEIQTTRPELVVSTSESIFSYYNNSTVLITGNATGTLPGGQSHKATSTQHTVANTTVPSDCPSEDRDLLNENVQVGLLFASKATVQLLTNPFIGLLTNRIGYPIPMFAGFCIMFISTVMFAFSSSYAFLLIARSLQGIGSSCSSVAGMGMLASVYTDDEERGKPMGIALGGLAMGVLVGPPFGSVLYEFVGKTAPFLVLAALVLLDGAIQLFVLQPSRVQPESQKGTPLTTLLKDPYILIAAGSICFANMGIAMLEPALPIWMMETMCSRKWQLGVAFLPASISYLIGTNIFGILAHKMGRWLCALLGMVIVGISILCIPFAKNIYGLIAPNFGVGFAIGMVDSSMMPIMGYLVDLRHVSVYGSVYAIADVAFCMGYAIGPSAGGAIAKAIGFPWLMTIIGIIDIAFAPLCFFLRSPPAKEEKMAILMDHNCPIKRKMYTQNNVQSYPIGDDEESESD

`CN1CCc2oc3ccccc3c2CC1` [drawing 162]: the Emax at 10 µM stood at 36% on KOR (CHO, Table 2, at 10 μM, read-out: % of control agonist maximal response (KOR)); 26% on 5-HT2A (Table 2); 99% at 5-HT2C (Table 2); 4% on 5-HT2B (Table 2). Further, the EC50 was approximately 4200 nM on KOR (Table 2, cAMP agonist assay, rat KOR, CHO); more than 10000 nM at 5-HT2A (Table 2); approximately 200 nM at 5-HT2C (Table 2); more than 10000 nM at 5-HT2B (Table 2). Also, the IC50 on hERG (Table 2, HEK-293) was more than 10000 nM. Besides, the inhibition at 10 µM on hERG (human, HEK-293 cells expressing hERG, probe [3H]Dofetilide, Table 2, at 10 μM, read-out: % inhibition of control specific binding (hERG)) turned out to be 11%.
In the case of `Oc1ccc2oc3c(c2c1)CCN1CCCC3C1` (stereo not shown) [drawing 175], the Emax is 91% at KOR (setting [1]), 55% at mouse DOR (mDOR), 44% on mouse MOR (mMOR) and 30% at rat KOR (rKOR). For the same compound, the concentration giving a half-maximal response (EC50) on KOR (Table 5, CAMP Assay) worked out at 50 nM; on mouse DOR (mDOR), 120 nM; on mouse MOR (mMOR) it was 110 nM; at rat KOR (rKOR), 140 nM.
Take `CN1CCc2oc3ccccc3c2CC1` [drawing 166]: the IC50 at hSERT was 1.4 ± 0.3 µM; at rVMAT2, 4.9 ± 0.94 µM.
`CN1CCCc2oc3ccccc3c2C1` [drawing 168]: the values for the 50% inhibitory concentration (IC50) on hSERT and on rVMAT2 were 7.1 ± 2.3 µM and 15 ± 4.6 µM, respectively.
For the compound `CC1Cc2oc3ccc(O)cc3c2CCN1C` (stereo not shown), the concentration for a half-maximal effect (EC50) is 1200 nM at mouse DOR (mDOR), 320 nM at mouse MOR (mMOR) and 79 nM on rat KOR (rKOR). Besides, the values for the Emax on mouse DOR (mDOR), on mouse MOR (mMOR) and on rat KOR (rKOR) were 66%, 46% and 53%, respectively.
Consider `CC1Cc2oc3ccc(O)cc3c2CCN1` (stereo not shown) [drawing 173], for which the Emax on KOR (setting [1]) turned out to be 96%; at mouse DOR (mDOR) it was 45%; at mouse MOR (mMOR), 16%; at rat KOR (rKOR), 36%. Besides, the EC50 at KOR (Table 5, CAMP Assay) was 60 nM; at mouse DOR (mDOR), 620 nM; at mouse MOR (mMOR) it was 200 nM; on rat KOR (rKOR) it was 130 nM.
As to `c1ccc2c3c(oc2c1)CCCNC3` [drawing 167], the figures for the IC50 on hSERT and on rVMAT2 were 11 ± 2.9 µM and 0.061 ± 0.01 µM, respectively.
`c1ccc2c3c(oc2c1)CCNCC3` [drawing 165]: the IC50 on hSERT was 0.45 ± 0.06 µM; on rVMAT2, 1.4 ± 0.23 µM.
In the case of `Oc1ccc2oc3c(c2c1)CCN1CCCC3C1` (stereo not shown) [drawing 171], the Emax at 10 µM at 5-HT2A (Table 4) was 1%; on 5-HT2C (Table 4) it was less than 0%; on 5-HT2B (Table 4), 5%. Also, the EC50 at 5-HT2A (Table 4) was more than 10000 nM; on 5-HT2C (Table 4), more than 10000 nM; on 5-HT2B (Table 4) it was 400 nM. Also, on hERG (Table 4), the IC50 was approximately 60000 nM. For the same compound, the inhibition at 30 µM at hERG (human, HEK-293 cells expressing hERG, probe [3H]Dofetilide, Table 4, efficacy at 30 μM, read-out: % inhibition of control specific binding (hERG)) was 38%.
`c1ccc2c3c([nH]c2c1)C1CCCN(CC3)C1` (stereo not shown) [Compound 61, 1,4,5,6,7,8-hexahydro-2H-3,7-methanoazonino[5,4-b]indole]: the ED50 with C57BL/6J mice was found to be 16.5 mg/kg.
